Measured values as given in PMC2866494 (Phytochemistry, 2010).

What was measured:
COX-1 = target: T1, COX-1 (Ovis aries, UniProt P05979); assay: COX-1 enzyme assay, PGE2 by LC-MS-MS, single point; type: biochemical; settings: read-out: CX1 ^f
T1 sequence (P05979 25-600): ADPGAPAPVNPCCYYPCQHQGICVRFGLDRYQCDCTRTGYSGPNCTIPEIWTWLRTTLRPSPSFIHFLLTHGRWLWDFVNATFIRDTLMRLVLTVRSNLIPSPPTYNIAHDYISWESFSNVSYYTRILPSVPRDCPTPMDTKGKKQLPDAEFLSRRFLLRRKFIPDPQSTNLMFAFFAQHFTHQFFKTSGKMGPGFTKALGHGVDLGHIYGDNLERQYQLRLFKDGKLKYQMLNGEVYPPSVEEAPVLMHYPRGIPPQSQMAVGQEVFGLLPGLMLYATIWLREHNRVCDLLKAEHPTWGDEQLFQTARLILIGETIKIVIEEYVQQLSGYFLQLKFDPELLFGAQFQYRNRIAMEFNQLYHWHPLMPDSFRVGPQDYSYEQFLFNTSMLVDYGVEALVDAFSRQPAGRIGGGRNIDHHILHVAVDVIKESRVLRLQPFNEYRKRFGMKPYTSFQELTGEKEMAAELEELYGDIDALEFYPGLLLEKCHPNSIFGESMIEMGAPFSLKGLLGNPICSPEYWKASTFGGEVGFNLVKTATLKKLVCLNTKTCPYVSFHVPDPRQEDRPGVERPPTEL

aromatase (CYP19) = target: T2, aromatase (CYP19) (Homo sapiens, UniProt P11511); assay: CYP19 enzyme, dibenzylfluorescein fluorescence assay; type: biochemical
T2 sequence (P11511 1-503): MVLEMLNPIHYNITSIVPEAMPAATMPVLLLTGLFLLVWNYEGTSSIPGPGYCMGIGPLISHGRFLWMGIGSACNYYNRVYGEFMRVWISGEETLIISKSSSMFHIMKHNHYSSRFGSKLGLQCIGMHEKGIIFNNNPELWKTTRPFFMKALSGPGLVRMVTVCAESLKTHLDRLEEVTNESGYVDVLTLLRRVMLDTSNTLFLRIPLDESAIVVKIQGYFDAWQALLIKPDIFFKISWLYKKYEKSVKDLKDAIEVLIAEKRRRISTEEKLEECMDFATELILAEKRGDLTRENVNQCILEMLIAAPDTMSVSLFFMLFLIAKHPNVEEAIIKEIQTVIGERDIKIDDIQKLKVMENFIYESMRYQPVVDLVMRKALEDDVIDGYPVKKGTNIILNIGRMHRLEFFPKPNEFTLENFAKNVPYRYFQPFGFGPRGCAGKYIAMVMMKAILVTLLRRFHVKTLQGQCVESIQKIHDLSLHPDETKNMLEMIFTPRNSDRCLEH

Question: For CC(=O)OC[C@H]1OC(O[C@@H]2[C@@H](OCCC(=O)C(C)C)[C@@H](O)[C@H](Oc3c(-c4ccc(O)cc4)oc4cc(O)cc(O)c4c3=O)O[C@H]2C)[C@H](O)[C@@H](O)[C@@H]1O (stereo partly drawn) [compound 1, kaempferol 3-O-[(6‴-O-acetyl-β-D-glucopyranosyl)-(1→4)-3″-O-(4⁗, 4⁗-dimethyl-3-oxo-butyl)-α-L-rhamnopyranoside]], which inhibition at 10 µg/mL (COX-1) is on record?
Answer: The inhibition at 10 µg/mL was 52%.

Question: CC(=O)OC[C@H]1O[C@@H](O[C@@H]2[C@@H](O)[C@@H](O)[C@H](Oc3c(-c4ccc(O)cc4)oc4cc(O)cc(O)c4c3=O)O[C@H]2C)[C@H](O)[C@@H](O)[C@@H]1O [compound 4, multiflorin A] was tested. Which IC50 (aromatase (CYP19)) did it give?
Answer: Its IC50 is 15.5 µM.
